Results from patent US20070021414A1, “1-'2-(4-Hydroxyphenyl)-2-hydroxyethyl!-piperidin-4-ol compounds as nmda receptor antagonists” (PFIZER, INC., priority 2003, published 2007).
Structures can show the parent of a compound that is named as a salt.

Experiments:
HERG potassium channel = target: T1, HERG potassium channel (Homo sapiens, UniProt Q12809); experiment: Human Dofetilide Binding; details: ratio of [3H]-dofetilide binding Ki (HERG transfected HEK293S membranes) to NR2B binding Ki
T1 construct: expressed in transfected cells; host or cells: HEK293S cells (membrane homogenate)
T1 sequence (Q12809 whole entry): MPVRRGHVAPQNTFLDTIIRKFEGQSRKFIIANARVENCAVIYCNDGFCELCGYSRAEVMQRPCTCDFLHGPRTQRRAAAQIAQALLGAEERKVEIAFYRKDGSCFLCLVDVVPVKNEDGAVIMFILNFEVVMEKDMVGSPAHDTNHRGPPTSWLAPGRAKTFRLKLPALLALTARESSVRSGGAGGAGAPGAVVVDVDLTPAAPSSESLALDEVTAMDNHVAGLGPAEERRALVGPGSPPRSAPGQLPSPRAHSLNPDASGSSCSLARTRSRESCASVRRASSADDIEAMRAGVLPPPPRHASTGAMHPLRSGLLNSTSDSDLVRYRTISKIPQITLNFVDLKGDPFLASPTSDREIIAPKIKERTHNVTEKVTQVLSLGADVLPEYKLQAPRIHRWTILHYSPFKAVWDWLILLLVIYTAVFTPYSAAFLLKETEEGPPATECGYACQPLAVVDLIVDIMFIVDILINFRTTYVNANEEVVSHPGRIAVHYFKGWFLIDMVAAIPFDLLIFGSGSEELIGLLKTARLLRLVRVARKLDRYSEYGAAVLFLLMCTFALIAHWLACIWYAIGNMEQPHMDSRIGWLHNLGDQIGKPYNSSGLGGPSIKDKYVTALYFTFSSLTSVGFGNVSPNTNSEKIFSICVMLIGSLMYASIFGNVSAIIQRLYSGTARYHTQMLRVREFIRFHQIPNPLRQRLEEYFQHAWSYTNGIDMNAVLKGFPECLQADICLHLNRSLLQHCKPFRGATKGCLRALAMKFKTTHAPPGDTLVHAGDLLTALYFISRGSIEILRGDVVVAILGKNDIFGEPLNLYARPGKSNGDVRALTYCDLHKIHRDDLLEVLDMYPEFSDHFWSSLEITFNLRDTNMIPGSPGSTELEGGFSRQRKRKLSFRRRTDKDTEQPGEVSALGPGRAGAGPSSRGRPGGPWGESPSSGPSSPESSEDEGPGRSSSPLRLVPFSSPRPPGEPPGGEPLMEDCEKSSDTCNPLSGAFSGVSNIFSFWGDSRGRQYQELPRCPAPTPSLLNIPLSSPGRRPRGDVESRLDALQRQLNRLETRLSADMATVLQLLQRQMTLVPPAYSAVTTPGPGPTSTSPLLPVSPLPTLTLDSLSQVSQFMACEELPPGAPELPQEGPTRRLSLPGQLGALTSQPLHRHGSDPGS
Procedure: Human BERG transfected HEK293S cells were prepared and grown in-house. The collected cells were suspended in 50 mM Tris-HCl (pH 7.4 at 4° C.) and homogenized using a hand held Polytron PT 1200 disruptor set at full power for 20 sec on ice. The homogenates were centrifuged at 48,000×g at 4° C. for 20 min. The pellets were then resuspended, homogenized, and centrifuged once more in the same manner. The final pellets were resuspended in an appropriate volume of 50 mM Tris-HCl, 10 mM KCl, 1 mM MgCl2 (pH 7.4 at 4° C.), homogenized, aliquoted and stored at −80° C. until use. An aliquot of membrane fractions was used for protein concentration determination using BCA protein assay kit (PIERCE) and ARVOsx plate reader (Wallac).
Binding assays were conducted in a total volume of 200 μl in 96-well plates. Twenty μl of test compounds were incubated with 20 μl of [^3H]-dofetilide (Amersham, final 5 nM) and 160 μl of membrane homogenate (25 μg protein) for 60 minutes at room temperature. Nonspecific binding was determined by 10 μM dofetilide at the final concentration. Incubation was terminated by rapid vacuum filtration over 0.5% presoaked GF/B Betaplate filter using Skatron cell harvester with 50 mM Tris-HCl, 10 mM KCl, 1 mM MgCl2, pH 7.4 at 4° C. The filters were dried, put into sample bags and filled with Betaplate Scint. Radioactivity bound to filter was counted with Wallac Betaplate counter.

With `Cc1cc(C(O)CN2CCC(O)(c3cccc(F)c3)CC2)c(F)cc1O` (stereo not drawn) as the compound, how does the melting point read?
The melting point was 161.7 °C.

With `COc1ccc(C2(O)CCN(CC(O)c3cc(F)c(O)cc3F)CC2)cn1` (stereo not drawn) (as salt: hydrochloride) as the compound, how does the melting point read?
The melting point was 199.5 °C.

For `Cc1cc(C(O)CN2CCC(O)(c3ccc4c(c3)COCC4)CC2)ccc1O` (stereo not drawn), which melting point is on record?
The melting point was 178.3 °C.

Which melting point does the source give for `COc1ccc(C2(O)CCN(CC(O)c3ccc(O)c(Cl)c3)CC2)cn1.Cl` (stereo not drawn) here?
Its melting point is 214.3 °C.

Which melting point does the source give for `COc1ccc(C2(O)CCN(CC(O)c3ccc(O)cc3)CC2)cn1` (stereo not drawn) here?
Its melting point is 198.8 °C.

With `COc1ccc(C2(O)CCN(CC(O)c3ccc(O)c(C)c3)CC2)cn1` (stereo not drawn) as the compound, how does the melting point read?
The melting point was 176 °C.

For `CCOc1ccc(C2(O)CCN(CC(O)c3ccc(O)c(C)c3)CC2)cn1` (stereo not drawn), which melting point is on record?
The melting point was 189.3 °C.

Which melting point does the source give for `COCc1ccc(C2(O)CCN(CC(O)c3cc(C)c(O)cc3C)CC2)cc1` (stereo not drawn) here?
Its melting point is 166.3 °C.

With `COCc1ccc(C2(O)CCN(CC(O)c3ccc(O)cc3)CC2)cc1` (stereo not drawn) as the compound, how does the melting point read?
Its melting point is 169.6 °C.

With `Oc1ccc(C(O)CN2CCC(O)(c3cccc(F)c3)CC2)c(F)c1` (stereo not drawn) as the compound, how does the melting point read?
The melting point was 186.1 °C.

For `Oc1cc(F)c(C(O)CN2CCC(O)(c3cccc(F)c3)CC2)cc1F` (stereo not drawn) (as salt: hydrochloride), which melting point is on record?
The melting point was 207 °C.

With `COc1ccc(C2(O)CCN(CC(O)c3cc(C)c(O)cc3C)CC2)cn1` (stereo not drawn) as the compound, how does the melting point read?
Its melting point is 156.5 °C.

Which melting point does the source give for `COc1ccc(C2(O)CCN(CC(O)c3cc(C)c(O)cc3F)CC2)cn1` (stereo not drawn) here?
Its melting point is 183.6 °C.

Which melting point does the source give for `Cc1cnc(C2(O)CCN(CC(O)c3ccc(O)c(C)c3)CC2)s1` (stereo not drawn) here?
Its melting point is 163.7 °C.

With `Oc1ccc(C(O)CN2CCC(O)(c3cccc(F)c3)CC2)cc1` (stereo not drawn) as the compound, how does the melting point read?
Its melting point is 154.2 °C.

With `Oc1ccc(C(O)CN2CCC(O)(c3ccc4c(c3)COCC4)CC2)c(F)c1` (stereo not drawn) as the compound, how does the melting point read?
The melting point was 186.1 °C.

For `COc1ccc(C2(O)CCN(CC(O)c3ccc(O)cc3Cl)CC2)cn1` (stereo not drawn), which melting point is on record?
Its melting point is 190.5 °C.

With `COCc1ccc(C2(O)CCN(CC(O)c3ccc(O)c(C)c3)CC2)cc1` (stereo not drawn) as the compound, how does the melting point read?
The melting point was 164.4 °C.

With `COc1ccc(C2(O)CCN(CC(O)c3ccc(O)c(C)c3)CC2)nc1F` (stereo not drawn) as the compound, how does the melting point read?
The melting point was 172.3 °C.

With `CCCOc1ccc(C2(O)CCN(CC(O)c3ccc(O)c(C)c3)CC2)cn1` (stereo not drawn) as the compound, how does the melting point read?
Its melting point is 187.4 °C.

For `Cc1cc([C@H](O)[C@H](C)N2CCC(O)(c3ccc(F)cc3)CC2)ccc1O` [comparative compound A], which “TI (Dofetilide Binding Ki [μM]/NR2B Binding Ki [nM]×1000)” value (HERG potassium channel) is on record?
The value was 220.
